Columns and labels:
Format in all cases: in vivo
Conditions in all cases: 14 days after application
[1] = tested on: upland rice (Oryza sp., var.Tebonnet, RICE); experiment: Post-emerge greenhouse screening, crop safety (phytotoxicity rating)
From the text: (§1) A standard greenhouse herbicide activity screening system was used to evaluate the herbicidal efficacy and crop safety of these test compounds. Seven broadleaf weed species including redroot pigweed (Amaranthus retroflexus, AMARE), velvetleaf (Abutilon theophrasti, ABUTH), sicklepod (Cassia obtusifolia, CASOB), ivyleaf morningglory (Ipomoea hederacea, IPOHE), lambsquarters (Chenopodium album, CHEAL), common ragweed (Ambrosia artemisiifolia L., AMBEL), and cocklebur (Xanthium strumarium, XANST) were used as test species. Four grass weed species including green foxtail (Setaria viridis, SETVI), barnyardgrass (Echinochloa crus-galli, ECHCG), johnsongrass (Sorghum halepense, SORHA), and large crabgrass (Digitaria sanguinalis, DIGSA) were also used. In addition, three crop species, field corn (Zea mays L., var. Dekalb 535, CORN), soybean (Glycine max L., var. Pella 86, SOY), and upland rice (Oryza sp., var.Tebonnet, RICE) were included.
(§2) All plants were grown in 10 cm square plastic pots which were filled with a sandy loam soil mix. For pre-emerge tests, seeds were planted one day prior to application of the test compounds. For post-emerge tests, seeds were planted 8-21 days prior to the test to allow emergence and good foliage development prior to application of the test substances. At the time of the post-emerge application, plants of all species were usually at the 2-3 leaf stage of development.
(§3) All test compounds were dissolved in acetone and applied to the test units in a volume of 187 1/ha. Test materials were applied at rates ranging from 15 g ai/ha to 1000 g ai/ha using a track sprayer equipped with a TJ8001E even flow flat fan spray nozzle. Plants were arranged on a shelf so that the top of the canopy (post-emerge) or top of the soil surface (pre-emerge) was 40-45 cm below the nozzle. Pressurized air was used to force the test solution through the nozzle as it was mechanically advanced (via electrically driven chain drive) over the top of all test plants/pots. This application simulates a typical commercial field herbicide application.
(§4) In the post-emerge test, a commercial non-ionic surfactant was also included (0.25% v/v) to enhance wetting of the leaf surfaces of target plants. Immediately after application, test units of the pre-emerge applications were watered at the soil surface to incorporate the test materials. Subsequently, these test units were bottom-watered. Post-emerge test units were always bottom-watered.
(§5) At 14 days after application of the test materials, phytotoxicity ratings were recorded. A rating scale of 0-100 was used as previously described in Research Methods in Weed Science, 2nd edition, B. Truelove, Ed., Southern Weed Science Society, Auburn University, Auburn, Ala., 1977. Briefly, “0” corresponds to no damage and “100” corresponds to complete death of all plants in the test unit. This scale was used both to determine efficacy against weed species and damage to crop species. Herbicide activity data for various compounds of this invention, which are shown by compound No. in Tables I-VI, are shown in Tables VIII-IX.

[2] = tested on: soybean (Glycine max L., var. Pella 86, SOY); experiment: as above
From the text: as §1, §2, §3, §4, §5

[3] = tested on: green foxtail (Setaria viridis, SETVI); experiment: Post-emerge greenhouse herbicide activity screening, phytotoxicity rating
From the text: as §1, §2, §3, §4, §5

[4] = tested on: johnsongrass (Sorghum halepense, SORHA); experiment: as above
From the text: as §1, §2, §3, §4, §5

[5] = tested on: common ragweed (Ambrosia artemisiifolia L., AMBEL); experiment: as above
From the text: as §1, §2, §3, §4, §5

[6] = tested on: sicklepod (Cassia obtusifolia, CASOB); experiment: as above
From the text: as §1, §2, §3, §4, §5

[7] = tested on: lambsquarters (Chenopodium album, CHEAL); experiment: as above
From the text: as §1, §2, §3, §4, §5

[8] = tested on: ivyleaf morningglory (Ipomoea hederacea, IPOHE); experiment: as above
From the text: as §1, §2, §3, §4, §5

[9] = tested on: large crabgrass (Digitaria sanguinalis, DIGSA); experiment: as above
From the text: as §1, §2, §3, §4, §5

[10] = tested on: redroot pigweed (Amaranthus retroflexus, AMARE); experiment: as above
From the text: as §1, §2, §3, §4, §5

[11] = tested on: barnyardgrass (Echinochloa crus-galli, ECHCG); experiment: as above
From the text: as §1, §2, §3, §4, §5

[12] = tested on: velvetleaf (Abutilon theophrasti, ABUTH); experiment: as above
From the text: as §1, §2, §3, §4, §5

[13] = tested on: green foxtail (Setaria viridis, SETVI); experiment: Pre-emerge greenhouse herbicide activity screening, phytotoxicity rating
From the text: as §1, §2, §3, §4, §5

[14] = tested on: johnsongrass (Sorghum halepense, SORHA); experiment: as above
From the text: as §1, §2, §3, §4, §5

[15] = tested on: common ragweed (Ambrosia artemisiifolia L., AMBEL); experiment: as above
From the text: as §1, §2, §3, §4, §5

[16] = tested on: sicklepod (Cassia obtusifolia, CASOB); experiment: as above
From the text: as §1, §2, §3, §4, §5

[17] = tested on: lambsquarters (Chenopodium album, CHEAL); experiment: as above
From the text: as §1, §2, §3, §4, §5

[18] = tested on: ivyleaf morningglory (Ipomoea hederacea, IPOHE); experiment: as above
From the text: as §1, §2, §3, §4, §5

[19] = tested on: large crabgrass (Digitaria sanguinalis, DIGSA); experiment: as above
From the text: as §1, §2, §3, §4, §5

[20] = tested on: redroot pigweed (Amaranthus retroflexus, AMARE); experiment: as above
From the text: as §1, §2, §3, §4, §5

[21] = tested on: barnyardgrass (Echinochloa crus-galli, ECHCG); experiment: as above
From the text: as §1, §2, §3, §4, §5

[22] = tested on: velvetleaf (Abutilon theophrasti, ABUTH); experiment: as above
From the text: as §1, §2, §3, §4, §5

[23] = tested on: field corn (Zea mays L., var. Dekalb 535, CORN); experiment: Post-emerge greenhouse screening, crop safety / corn selectivity (phytotoxicity rating)
From the text: as §1, §2, §3, §4, §5

[24] = tested on: upland rice (Oryza sp., var.Tebonnet, RICE); experiment: Pre-emerge greenhouse screening, crop safety (phytotoxicity rating)
From the text: as §1, §2, §3, §4, §5

[25] = tested on: field corn (Zea mays L., var. Dekalb 535, CORN); experiment: as above
From the text: as §1, §2, §3, §4, §5

[26] = tested on: soybean (Glycine max L., var. Pella 86, SOY); experiment: as above
From the text: as §1, §2, §3, §4, §5

SMILES: Cn1c(C(F)(F)F)cc(=O)n(-c2cc(Oc3ccccc3)c(Cl)cc2F)c1=S [Compound 1-47]
- RICE crop damage, phytotoxicity rating (0-100 scale) ([1]; 125 g ai/ha): 0
- RICE crop damage, phytotoxicity rating (0-100 scale) ([1]; 250 g ai/ha): 0
- SOY crop damage, phytotoxicity rating (0-100 scale) ([2]; 125 g ai/ha): 15
- SOY crop damage, phytotoxicity rating (0-100 scale) ([2]; 250 g ai/ha): 40
- SETVI phytotoxicity rating (0-100 scale) ([3]; 125 g ai/ha): 50
- SETVI phytotoxicity rating (0-100 scale) ([3]; 250 g ai/ha): 75
- SORHA phytotoxicity rating (0-100 scale) ([4]; 125 g ai/ha): 0
- SORHA phytotoxicity rating (0-100 scale) ([4]; 250 g ai/ha): 0
- AMBEL phytotoxicity rating (0-100 scale) ([5]; 125 g ai/ha): 70
- AMBEL phytotoxicity rating (0-100 scale) ([5]; 250 g ai/ha): 75
- CASOB phytotoxicity rating (0-100 scale) ([6]; 125 g ai/ha): 65
- CASOB phytotoxicity rating (0-100 scale) ([6]; 250 g ai/ha): 65
- CHEAL phytotoxicity rating (0-100 scale) ([7]; 125 g ai/ha): 99
- CHEAL phytotoxicity rating (0-100 scale) ([7]; 250 g ai/ha): 100
- IPOHE phytotoxicity rating (0-100 scale) ([8]; 125 g ai/ha): 75
- IPOHE phytotoxicity rating (0-100 scale) ([8]; 250 g ai/ha): 85
- DIGSA phytotoxicity rating (0-100 scale) ([9]; 125 g ai/ha): 10
- DIGSA phytotoxicity rating (0-100 scale) ([9]; 250 g ai/ha): 35
- AMARE phytotoxicity rating (0-100 scale) ([10]; 125 g ai/ha): 100
- AMARE phytotoxicity rating (0-100 scale) ([10]; 250 g ai/ha): 100
- ECHCG phytotoxicity rating (0-100 scale) ([11]; 125 g ai/ha): 60
- ECHCG phytotoxicity rating (0-100 scale) ([11]; 250 g ai/ha): 65
- ABUTH phytotoxicity rating (0-100 scale) ([12]; 125 g ai/ha): 100
- ABUTH phytotoxicity rating (0-100 scale) ([12]; 250 g ai/ha): 100
- SETVI phytotoxicity rating (0-100 scale) ([13]; 125 g ai/ha): 100
- SETVI phytotoxicity rating (0-100 scale) ([13]; 250 g ai/ha): 100
- SORHA phytotoxicity rating (0-100 scale) ([14]; 125 g ai/ha): 50
- SORHA phytotoxicity rating (0-100 scale) ([14]; 250 g ai/ha): 55
- AMBEL phytotoxicity rating (0-100 scale) ([15]; 125 g ai/ha): 95
- AMBEL phytotoxicity rating (0-100 scale) ([15]; 250 g ai/ha): 99
- CASOB phytotoxicity rating (0-100 scale) ([16]; 125 g ai/ha): 90
- CASOB phytotoxicity rating (0-100 scale) ([16]; 250 g ai/ha): 99
- CHEAL phytotoxicity rating (0-100 scale) ([17]; 125 g ai/ha): 100
- CHEAL phytotoxicity rating (0-100 scale) ([17]; 250 g ai/ha): 100
- IPOHE phytotoxicity rating (0-100 scale) ([18]; 125 g ai/ha): 95
- IPOHE phytotoxicity rating (0-100 scale) ([18]; 250 g ai/ha): 98
- DIGSA phytotoxicity rating (0-100 scale) ([19]; 125 g ai/ha): 95
- DIGSA phytotoxicity rating (0-100 scale) ([19]; 250 g ai/ha): 100
- AMARE phytotoxicity rating (0-100 scale) ([20]; 125 g ai/ha): 100
- AMARE phytotoxicity rating (0-100 scale) ([20]; 250 g ai/ha): 100
- ECHCG phytotoxicity rating (0-100 scale) ([21]; 125 g ai/ha): 80
- ECHCG phytotoxicity rating (0-100 scale) ([21]; 250 g ai/ha): 85
- ABUTH phytotoxicity rating (0-100 scale) ([22]; 125 g ai/ha): 100
- ABUTH phytotoxicity rating (0-100 scale) ([22]; 250 g ai/ha): 100
- CORN crop damage, phytotoxicity rating (0-100 scale) ([23]; 125 g ai/ha): 0
- CORN crop damage, phytotoxicity rating (0-100 scale) ([23]; 250 g ai/ha): 0
- RICE crop damage, phytotoxicity rating (0-100 scale) ([24]; 125 g ai/ha): 15
- RICE crop damage, phytotoxicity rating (0-100 scale) ([24]; 250 g ai/ha): 25
- CORN crop damage, phytotoxicity rating (0-100 scale) ([25]; 125 g ai/ha): 5
- CORN crop damage, phytotoxicity rating (0-100 scale) ([25]; 250 g ai/ha): 8
- SOY crop damage, phytotoxicity rating (0-100 scale) ([26]; 125 g ai/ha): 50
- SOY crop damage, phytotoxicity rating (0-100 scale) ([26]; 250 g ai/ha): 65

Reference: patent publication US6613718B2, “Aryl ether derivatives and processes for their preparation and herbicidal and desiccant compositions containing them” (Ishihara Sangyo Kaisha, Ltd., priority 2001, dated 2003)
